Results from patent publication US8476455B2, “1-N-phenyl-amino-1h-imidazole derivatives and pharmaceutical compositions containing them” (Laboratoire Theramex, priority 2003, dated 2013).
“Also recorded” adds a separate entry of the source.

Key:
[1] = test system: aromatase; assay: Inhibition of estradiol peak, in vivo aromatase inhibition model; parameters: species or system rat; details: female rats, 24 hours after one oral administration
Description: One hundred IOPS Wistar female rats, weighing 180 to 200 g, were accommodated by four in stainless steel mesh cages. […] Vaginal smears were performed for each animal, each morning, in order to establish the different phases of cycle. […] Starting at 4.00 pm, animals received an oral administration of formulations. 24 hours later, samples of serum were collected and estradiol level were determined as previously described (Table 4).

[2] = test system: Ishikawa cells; assay: Alkaline phosphatase activity in Ishikawa cells (estrogenic potency); assay type: cell-based; details: hydrochloride
Description: Ishikawa cells were plated into 96-well microplates 48 hours before studies. The next day, the medium was replaced by phenol red free medium supplemented with 5% charcoal-stripped dFCS. 24 hours later, the medium was renewed and compounds were added to the plated cells and incubated for an additional four-day period. […] At the end of the incubation period, alkaline phosphatase activity (APase) was assayed by a method involving the hydrolysis of p-nitrophenyl phosphate to p-nitrophenol and spectrophotometric determination of the product at 405 nm.
In brief, the microplates were first rinsed twice with cold phosphate buffered solution and then placed at −80° C. for at least 15 minutes. After thawing at room temperature, 50 μl ice-cold solution containing 5 mM p-nitrophenyl phosphate was added to each well. After a 15 to 60 minute incubation period at room temperature, the intensity of the yellow color generated by the production of p-nitrophenol was measured into each well at 405 nm.
For each tested concentration, APase activity, reflected by absorbance, was first expressed as fold increase over control (FI) and then as percentage of E2 activity (10^-8 M) chosen equal to 100%.

[3] = target: T1, human steroid sulfatase (Homo sapiens, UniProt P08842); assay: Dual aromatase and steroid sulfatase activities in JEG-3 cells: sulfatase readout; assay type: cell-based; details: footnote c: dual aromatase and sulfatase activity, nd: not detected, read-out: Sulfatase activity IC50 (nM) ± S.E.M.
T1 construct: The JEG-3 cell line is intrinsically very rich in human estrone sulfatase; endogenous in cells; host or cells: JEG-3 (human placental choriocarcinoma)
T1 sequence (P08842 22-583): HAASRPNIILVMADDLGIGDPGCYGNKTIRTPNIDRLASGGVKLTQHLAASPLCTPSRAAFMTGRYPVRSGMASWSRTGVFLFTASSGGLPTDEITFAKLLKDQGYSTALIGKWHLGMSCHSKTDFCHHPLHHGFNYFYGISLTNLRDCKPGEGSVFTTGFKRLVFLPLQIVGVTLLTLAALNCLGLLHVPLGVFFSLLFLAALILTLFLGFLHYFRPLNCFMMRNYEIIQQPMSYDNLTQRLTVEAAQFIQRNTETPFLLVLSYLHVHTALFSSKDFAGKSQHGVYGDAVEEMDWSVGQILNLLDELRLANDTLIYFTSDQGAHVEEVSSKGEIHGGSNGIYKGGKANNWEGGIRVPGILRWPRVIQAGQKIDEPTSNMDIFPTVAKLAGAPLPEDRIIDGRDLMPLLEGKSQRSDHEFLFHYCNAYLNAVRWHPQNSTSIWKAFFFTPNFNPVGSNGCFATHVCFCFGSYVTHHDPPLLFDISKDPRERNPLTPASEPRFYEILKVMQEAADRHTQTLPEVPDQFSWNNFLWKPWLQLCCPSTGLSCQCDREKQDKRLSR
Description: The JEG-3 cell line is intrinsically very rich in human estrone sulfatase and therefore is a useful biological system to evaluate new steroid sulfatase inhibitors in vitro. Assays were carried out with cells in logarithmic growth phase on 96-well microplates. 24 h before studies, cells were seeded in decomplemented fetal calf serum (dFCS) supplemented medium. The medium was removed 24 h later and cells were rinsed with PBS to eliminate any trace of dFCS. Then, ^3H-E1S was added in dFCS free medium, followed by test compounds at concentrations ranging from 10^−12 M to 10^−5 M. After 4 h of treatment, the medium was transferred into 96-deep-well microplates and centrifuged at 200×g for 10 min to pellet cells before toluene extraction. A fraction of the medium was used for toluene extraction in order to separate the conjugated substrate from non-conjugated products. The radioactivity in the toluene phase was measured by liquid scintillation counting. In parallel, after cell solubilization in a ethylenediamine tetraacetate solution, DNA content was measured by a standard fluorimetric method using the Hoechst 33258 fluorochrome. Finally, estrone sulfatase activity was expressed in pmoles of ^3H-E1+^3H-E2 formed/4 hours/mg DNA and estrone sulfatase inhibition as a percentage of control activity without inhibitor.
In order to evaluate the inhibitory potency of DASI compounds in parallel on both human aromatase and steroid sulfatase activities, a new in vitro model was set up using JEG-3 cells. The experimental conditions of the steroid sulfatase model previously described was adopted with slight modifications: the presence of the two substrates ^3-HE1S and 1β-^3H-androstenedione into the medium and an incubation period of 2 hours. Results were expressed in pmoles of product formed (^3H-E1+^3H-E2 or ^3H2O)/2 hours/mg DNA (Table 1).

melting point: 145 °C
IC50 [3]: ~10 nM
SMILES: Cl.N#Cc1ccc(N(Cc2ccc(OS(N)(=O)=O)c(Br)c2)n2ccnc2)cc1 [Ex 45, Sulfamic acid 2-bromo-4-{[N-(4-cyanophenyl)-N-(1H-imidazol-1yl)amino]methyl}phenyl ester, hydrochloride]
% inhibition (estradiol peak) [1]: 28%
estrogenicity in vitro (in words) [2]: not estrogenic; also recorded: lack of estrogenicity
